One may read the EC50 as the concentration needed to bring the measured effect to its halfway point. Lower therefore signals higher potency in that assay.

Assay [1] addresses T1, FPR2 (human blood neutrophils) (Homo sapiens, UniProt P25090).
T1 sequence (P25090 1-351): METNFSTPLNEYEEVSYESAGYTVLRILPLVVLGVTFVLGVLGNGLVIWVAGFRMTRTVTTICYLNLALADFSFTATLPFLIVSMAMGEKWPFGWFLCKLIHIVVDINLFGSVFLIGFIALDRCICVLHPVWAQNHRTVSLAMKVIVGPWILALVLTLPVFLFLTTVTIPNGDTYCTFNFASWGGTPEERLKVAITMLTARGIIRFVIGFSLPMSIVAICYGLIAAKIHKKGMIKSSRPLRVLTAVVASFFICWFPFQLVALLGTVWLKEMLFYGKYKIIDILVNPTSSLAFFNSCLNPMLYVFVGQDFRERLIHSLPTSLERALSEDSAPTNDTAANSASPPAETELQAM
As to the kind of experiment: NADPH-oxidase superoxide release, isoluminol chemiluminescence, peak response. The format is cell-based. The conditions noted are these: agonist; naive neutrophils, 37 °C, pH 7.3.

The target of assay [2] is T2, FPR2 (PathHunter eXpress CHO-K1 FPR2 cells) (Homo sapiens, UniProt P25090).
T2 sequence (P25090 1-351): T1 sequence (P25090 1-351)
As to the kind of experiment: beta-arrestin recruitment, PathHunter enzyme fragment complementation. The format is cell-based. (Activated receptors often draw arrestin, which recruitment assays turn into a signal.)

Regarding `Cc1cccc(-c2oc(C)nc2C(=O)Nc2cnn(Cc3nc(C(C)(F)F)co3)n2)c1` [Act-389949, N-(2-{[4-(1,1-difluoroethyl)-1,3-oxazol-2-yl]methyl}-2H-1,2,3-triazol-4-yl)-2-methyl-5-(3-methylphenyl)-1,3-oxazole-4-carboxamide], the EC50 was approximately 10 nM in assay [1] and approximately 20 nM in assay [2].

Source of the values: article doi:10.1101/571604v1 (biorxiv, 2019).
